Tests used:
[1] = system: control sera (pooled serum of ten healthy LUMC hospital workers; commercial negative donor pooled serum from the Dutch bloodbank); type: binding, human; parameters: Binding of Control serum LUMC to linear peptides / Binding of Control serum Blood-bank to linear peptides / Binding of Control serum LUMC to looped peptides / Binding of Control Serum Blood-Bank to Looped peptides / Binding of Control serum LUMC to linear peptides of the protein M of SARS-CoV Urbani / Binding of Control serum Blood-bank to linear peptides of the protein M of SARS-CoV Urbani / Binding of Control serum LUMC to looped peptides of the protein M of SARS-CoV Urbani / Binding of Control Serum Blood-Bank to Looped peptides of the protein M of SARS-CoV Urbani: unit not given here
[2] = system: rabbit serum obtained by immunizing a rabbit with the SARS-CoV strain Frankfurt 1; type: binding; parameters: Binding of a rabbit serum to linear peptides / Binding of a rabbit serum to looped peptides / Rabbit serum linear peptides / Rabbit serum looped peptides / Binding of a rabbit serum to linear peptides of protein N of SARS-CoV Urbani (Rabbit serum linear peptides) / Binding of a rabbit serum to looped/cyclic peptides of protein N of SARS-CoV Urbani (Rabbit serum looped peptides): unit not given here
[3] = system: antibodies in sera from SARS patients (sera 1a, 1b, 2, 6, 37, 62, London, SARS-yellow, SARS-green); type: binding, human; parameters: Binding of serum 6 to linear peptides of protein X1 of SARS-CoV Urbani / Binding of serum 37 to linear peptides of protein X1 of SARS-CoV Urbani / Binding of serum 6 to looped/cyclic peptide (PEPSCAN-ELISA) / Binding of serum 37 to looped/cyclic peptide (PEPSCAN-ELISA) / Binding of serum 37 to looped/cyclic peptides of protein X1 of SARS-CoV Urbani / Binding of serum 6 to linear peptides of protein X2 / Binding of serum 37 to linear peptides of protein X2 / Binding of serum 37 to looped/cyclic peptides of protein X2 of SARS-CoV Urbani / Binding of serum 6 to linear peptides of protein M of SARS-CoV Urbani / Binding of serum 37 to linear peptides of protein M of SARS-CoV Urbani / Binding of serum 6 to looped/cyclic peptides of protein M of SARS-CoV Urbani / Binding of serum 37 to looped/cyclic peptides of protein M of SARS-CoV Urbani / Binding of serum 6 to linear peptides of protein X3 of SARS-CoV Urbani / Binding of serum 37 to linear peptides of protein X3 of SARS-CoV Urbani / Binding of serum 37 to looped/cyclic peptides of protein X3 of SARS-CoV Urbani / Binding of serum 6 to linear peptides of protein X4 of SARS-CoV Urbani / Binding of serum 37 to linear peptides of protein X4 of SARS-CoV Urbani / Binding of serum 37 to looped/cyclic peptides of protein X4 of SARS-CoV Urbani / Binding of serum 6 to linear peptides of protein X5 of SARS-CoV Urbani / Binding of serum 37 to linear peptides of protein X5 of SARS-CoV Urbani / Binding of serum 37 to looped/cyclic peptides of protein X5 of SARS-CoV Urbani / Binding of serum 6 to linear peptides of protein N of SARS-CoV Urbani / Binding of serum 37 to linear peptides of protein N of SARS-CoV Urbani / Binding of serum 6 to linear peptide (PEPSCAN-ELISA) / Binding of serum 1a to looped/cyclic peptides of protein N of SARS-CoV Urbani / Binding of serum 1b to looped/cyclic peptides of protein N of SARS-CoV Urbani / Binding of serum 2 to looped/cyclic peptides of protein N of SARS-CoV Urbani / Binding of serum 6 to looped/cyclic peptides of protein N of SARS-CoV Urbani / Binding of serum 37 to looped/cyclic peptides of protein N of SARS-CoV Urbani / Binding of serum 62 to looped/cyclic peptides of protein N of SARS-CoV Urbani / Binding of serum London to looped/cyclic peptides of protein N of SARS-CoV Urbani / Binding of serum SARS-green to looped/cyclic peptides of protein N of SARS-CoV Urbani: unit not given here

IAIWNLDVIISSIVR
0.4: Binding of serum 6 to looped/cyclic peptides of protein X3 of SARS-CoV Urbani [3] | Binding of serum SARS-yellow to linear peptides of protein X3 of SARS-CoV Urbani [3]
0.3: Rabbit serum linear peptides [2] | Rabbit serum looped peptides [2] | Binding of serum 1b to looped/cyclic peptides of protein X3 of SARS-CoV Urbani [3] | Binding of serum SARS-green to linear peptides of protein X3 of SARS-CoV Urbani [3]
0.7: Binding of Control Serum Blood-Bank to Looped peptides of the protein X3 of SARS-CoV Urbani [1] | Binding of Control serum LUMC to looped peptides of the protein X3 of SARS-CoV Urbani [1] | Binding of serum 1a to linear peptides of protein X3 of SARS-CoV Urbani [3] | Binding of serum 1a to looped/cyclic peptides of protein X3 of SARS-CoV Urbani [3]
0.2: Binding of serum London to looped/cyclic peptides of protein X3 of SARS-CoV Urbani [3]
0.6: Binding of Control serum Blood-bank to linear peptides of the protein X3 of SARS-CoV Urbani [1] | Binding of serum 2 to linear peptides of protein X3 of SARS-CoV Urbani [3] | Binding of serum 2 to looped/cyclic peptides of protein X3 of SARS-CoV Urbani [3] | Binding of serum 37 to looped/cyclic peptides of protein X3 of SARS-CoV Urbani [3] | Binding of serum 62 to linear peptides of protein X3 of SARS-CoV Urbani [3] | Binding of serum London to linear peptides of protein X3 of SARS-CoV Urbani [3] | Binding of serum SARS-yellow to looped/cyclic peptides of protein X3 of SARS-CoV Urbani [3]
0.0: Binding of serum SARS-green to looped/cyclic peptides of protein X3 of SARS-CoV Urbani [3]
0.5: Binding of Control serum LUMC to linear peptides of the protein X3 of SARS-CoV Urbani [1] | Binding of serum 1b to linear peptides of protein X3 of SARS-CoV Urbani [3] | Binding of serum 6 to linear peptides of protein X3 of SARS-CoV Urbani [3] | Binding of serum 37 to linear peptides of protein X3 of SARS-CoV Urbani [3] | Binding of serum 62 to looped/cyclic peptides of protein X3 of SARS-CoV Urbani [3]

ICNLLLLFVTIYSHL
0.2: Binding of a rabbit serum to linear peptides [2] | Binding of serum 6 to looped/cyclic peptide (PEPSCAN-ELISA) [3] | Binding of serum London to linear peptides of protein X1 of SARS-CoV Urbani [3] | Binding of serum London to looped/cyclic peptide (PEPSCAN-ELISA) [3] | Binding of serum SARS-green to looped/cyclic peptide (PEPSCAN-ELISA) [3]
0.5: Binding of Control Serum Blood-Bank to Looped peptides [1] | Binding of Control serum Blood-bank to linear peptides [1] | Binding of Control serum LUMC to linear peptides [1] | Binding of a rabbit serum to looped peptides [2] | Binding of serum 2 to linear peptides of protein X1 of SARS-CoV Urbani [3] | Binding of serum 62 to linear peptides of protein X1 of SARS-CoV Urbani [3] | Binding of serum 62 to looped/cyclic peptide (PEPSCAN-ELISA) [3]
0.4: Binding of Control serum LUMC to looped peptides [1] | Binding of serum 1a to looped/cyclic peptide (PEPSCAN-ELISA) [3] | Binding of serum 2 to looped/cyclic peptide (PEPSCAN-ELISA) [3] | Binding of serum 6 to linear peptides of protein X1 of SARS-CoV Urbani [3] | Binding of serum 37 to looped/cyclic peptide (PEPSCAN-ELISA) [3] | Binding of serum SARS-yellow to linear peptides of protein X1 of SARS-CoV Urbani [3] | Binding of serum SARS-yellow to looped/cyclic peptide (PEPSCAN-ELISA) [3]
0.6: Binding of serum 1a to linear peptides of protein X1 of SARS-CoV Urbani [3] | Binding of serum 1b to linear peptides of protein X1 of SARS-CoV Urbani [3] | Binding of serum 37 to linear peptides of protein X1 of SARS-CoV Urbani [3]
0.3: Binding of serum 1b to looped/cyclic peptide (PEPSCAN-ELISA) [3] | Binding of serum SARS-green to linear peptides of protein X1 of SARS-CoV Urbani [3]

IGFLFLAWIMLLQFA
0.4: Binding of serum 37 to linear peptides of protein M of SARS-CoV Urbani [3]
0.8: Binding of Control serum LUMC to looped peptides of the protein M of SARS-CoV Urbani [1] | Binding of serum 1a to looped/cyclic peptides of protein M of SARS-CoV Urbani [3] | Binding of serum 62 to looped/cyclic peptides of protein M of SARS-CoV Urbani [3]
0.5: Binding of serum 2 to linear peptides of protein M of SARS-CoV Urbani [3] | Binding of serum 62 to linear peptides of protein M of SARS-CoV Urbani [3] | Binding of serum SARS-green to linear peptides of protein M of SARS-CoV Urbani [3] | Binding of serum SARS-yellow to looped/cyclic peptides of protein M of SARS-CoV Urbani [3]
0.6: Binding of serum 1b to linear peptides of protein M of SARS-CoV Urbani [3] | Binding of serum 2 to looped/cyclic peptides of protein M of SARS-CoV Urbani [3] | Binding of serum London to linear peptides of protein M of SARS-CoV Urbani [3]
0.2: Rabbit serum linear peptides [2] | Binding of serum SARS-yellow to linear peptides of protein M of SARS-CoV Urbani [3]
0.3: Rabbit serum looped peptides [2] | Binding of serum London to looped/cyclic peptides of protein M of SARS-CoV Urbani [3] | Binding of serum SARS-green to looped/cyclic peptides of protein M of SARS-CoV Urbani [3]
0.9: Binding of serum 6 to linear peptides of protein M of SARS-CoV Urbani [3] | Binding of serum 6 to looped/cyclic peptides of protein M of SARS-CoV Urbani [3]
0.7: Binding of Control Serum Blood-Bank to Looped peptides of the protein M of SARS-CoV Urbani [1] | Binding of Control serum Blood-bank to linear peptides of the protein M of SARS-CoV Urbani [1] | Binding of Control serum LUMC to linear peptides of the protein M of SARS-CoV Urbani [1] | Binding of serum 1a to linear peptides of protein M of SARS-CoV Urbani [3] | Binding of serum 1b to looped/cyclic peptides of protein M of SARS-CoV Urbani [3] | Binding of serum 37 to looped/cyclic peptides of protein M of SARS-CoV Urbani [3]

IIMRCWLCWKCKSKN
0.5: Binding of Control serum Blood-bank to linear peptides [1] | Binding of serum 1a to looped/cyclic peptide (PEPSCAN-ELISA) [3] | Binding of serum 6 to looped/cyclic peptide (PEPSCAN-ELISA) [3] | Binding of serum 62 to looped/cyclic peptide (PEPSCAN-ELISA) [3]
0.6: Binding of Control Serum Blood-Bank to Looped peptides [1] | Binding of Control serum LUMC to looped peptides [1]
0.2: Binding of a rabbit serum to linear peptides [2] | Binding of serum London to looped/cyclic peptide (PEPSCAN-ELISA) [3] | Binding of serum SARS-green to looped/cyclic peptide (PEPSCAN-ELISA) [3]
recognized in linear form: Recognition of the peptide by sera of SARS-CoV infected individuals, and form (linear, looped/cyclic) in which it is recognized [3]
0.3: Binding of serum 1b to looped/cyclic peptide (PEPSCAN-ELISA) [3] | Binding of serum 2 to looped/cyclic peptide (PEPSCAN-ELISA) [3] | Binding of serum SARS-yellow to looped/cyclic peptide (PEPSCAN-ELISA) [3]
0.4: Binding of Control serum LUMC to linear peptides [1] | Binding of serum 37 to looped/cyclic peptide (PEPSCAN-ELISA) [3]
0.7: Binding of a rabbit serum to looped peptides [2]

IKDLPKEITVATSRT
0.0: Binding of serum SARS-yellow to linear peptides of protein M of SARS-CoV Urbani [3]
0.9: Binding of serum SARS-yellow to looped/cyclic peptides of protein M of SARS-CoV Urbani [3]
0.5: Binding of Control Serum Blood-Bank to Looped peptides of the protein M of SARS-CoV Urbani [1] | Binding of serum 1b to linear peptides of protein M of SARS-CoV Urbani [3] | Binding of serum 2 to looped/cyclic peptides of protein M of SARS-CoV Urbani [3]
0.6: Binding of Control serum Blood-bank to linear peptides of the protein M of SARS-CoV Urbani [1] | Binding of serum 2 to linear peptides of protein M of SARS-CoV Urbani [3] | Binding of serum 37 to looped/cyclic peptides of protein M of SARS-CoV Urbani [3] | Binding of serum 62 to looped/cyclic peptides of protein M of SARS-CoV Urbani [3]
0.2: Rabbit serum looped peptides [2] | Binding of serum London to looped/cyclic peptides of protein M of SARS-CoV Urbani [3] | Binding of serum SARS-green to linear peptides of protein M of SARS-CoV Urbani [3]
0.8: Binding of serum 37 to linear peptides of protein M of SARS-CoV Urbani [3] | Binding of serum 62 to linear peptides of protein M of SARS-CoV Urbani [3]
0.3: Rabbit serum linear peptides [2] | Binding of serum 6 to linear peptides of protein M of SARS-CoV Urbani [3] | Binding of serum London to linear peptides of protein M of SARS-CoV Urbani [3] | Binding of serum SARS-green to looped/cyclic peptides of protein M of SARS-CoV Urbani [3]
0.4: Binding of Control serum LUMC to linear peptides of the protein M of SARS-CoV Urbani [1] | Binding of serum 1a to looped/cyclic peptides of protein M of SARS-CoV Urbani [3] | Binding of serum 1b to looped/cyclic peptides of protein M of SARS-CoV Urbani [3] | Binding of serum 6 to looped/cyclic peptides of protein M of SARS-CoV Urbani [3]
0.7: Binding of Control serum LUMC to looped peptides of the protein M of SARS-CoV Urbani [1] | Binding of serum 1a to linear peptides of protein M of SARS-CoV Urbani [3]

Reference: patent US20070128217A1 (priority 2003, published 2007)
